Assay results reported in the supplement of paper PMC10307832.

Legend:
Test in all cases: relative viability (nuclei count vs DMSO), 5 days (fraction); higher = more cells survive
OSI-027 + Palbociclib = compound: COc1cccc2cc(-c3nc([C@H]4CC[C@H](C(=O)O)CC4)n4ncnc(N)c34)[nH]c12 [OSI-027] + CC(=O)c1c(C)c2cnc(Nc3ccc(N4CCNCC4)cn3)nc2n(C2CCCC2)c1=O [Palbociclib] (partner 0.5 µM)
Procedure, shortened: (§1)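 Relative viability is defined as nuclei in treated wells over nuclei in vehicle wells. Duplicate plates were run and medians reported. Lung cancer cell lines in 1536-well plates were dosed by pin tool one day after seeding, with one drug or with a fixed anchor-drug dose plus five library-drug doses (not always all listed) in √10 steps, and nuclei were counted after 5 days.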

OSI-027 + Olaparib = compound: COc1cccc2cc(-c3nc([C@H]4CC[C@H](C(=O)O)CC4)n4ncnc(N)c34)[nH]c12 [OSI-027] + O=C(c1cc(Cc2n[nH]c(=O)c3ccccc23)ccc1F)N1CCN(C(=O)C2CC2)CC1 [Olaparib] (partner 8 µM)
Procedure, shortened: as §1

Alpelisib + Navitoclax = compound: Cc1nc(NC(=O)N2CCC[C@H]2C(N)=O)sc1-c1ccnc(C(C)(C)C(F)(F)F)c1 [Alpelisib] + CC1(C)CCC(c2ccc(Cl)cc2)=C(CN2CCN(c3ccc(C(=O)NS(=O)(=O)c4ccc(N[C@H](CCN5CCOCC5)CSc5ccccc5)c(S(=O)(=O)C(F)(F)F)c4)cc3)CC2)C1 [Navitoclax] (partner 0.5 µM)
Procedure, shortened: as §1

Alpelisib + Pictilisib = compound: Cc1nc(NC(=O)N2CCC[C@H]2C(N)=O)sc1-c1ccnc(C(C)(C)C(F)(F)F)c1 [Alpelisib] + CS(=O)(=O)N1CCN(Cc2cc3nc(-c4cccc5[nH]ncc45)nc(N4CCOCC4)c3s2)CC1 [Pictilisib] (partner 1 µM)
Procedure, shortened: as §1

| Cell Line | relative viability (OSI-027 + Palbociclib; first compound 0.01 µM) | relative viability (OSI-027 + Palbociclib; first compound 0.03162 µM) | relative viability (OSI-027 + Palbociclib; first compound 0.1 µM) | relative viability (OSI-027 + Palbociclib; first compound 0.3162 µM) | relative viability (OSI-027 + Palbociclib; first compound 1 µM) | relative viability (OSI-027 + Olaparib; first compound 0.01 µM) | relative viability (OSI-027 + Olaparib; first compound 0.03162 µM) | relative viability (OSI-027 + Olaparib; first compound 0.1 µM) | relative viability (OSI-027 + Olaparib; first compound 0.3162 µM) | relative viability (OSI-027 + Olaparib; first compound 1 µM) | relative viability (Alpelisib + Navitoclax; first compound 0.04 µM) | relative viability (Alpelisib + Navitoclax; first compound 0.1265 µM) | relative viability (Alpelisib + Navitoclax; first compound 0.4 µM) | relative viability (Alpelisib + Navitoclax; first compound 1.265 µM) | relative viability (Alpelisib + Navitoclax; first compound 4 µM) | relative viability (Alpelisib + Pictilisib; first compound 0.04 µM) | relative viability (Alpelisib + Pictilisib; first compound 0.1265 µM) | relative viability (Alpelisib + Pictilisib; first compound 0.4 µM) | relative viability (Alpelisib + Pictilisib; first compound 1.265 µM) | relative viability (Alpelisib + Pictilisib; first compound 4 µM) |
| --- | --- | --- | --- | --- | --- | --- | --- | --- | --- | --- | --- | --- | --- | --- | --- | --- | --- | --- | --- | --- |
| BEN | 0.487 | 0.47 | 0.425 | 0.471 | 0.472 | 1.15 | 1.19 | 0.769 | 0.554 | 0.527 | 0.0833 | 0.0642 | 0.161 | 0.0705 | 0.0615 | 0.562 | 0.523 | 0.705 | 0.579 | 0.578 |
| HCC-827 | 0.507 | 0.414 | 0.507 | 0.299 | 0.207 | 0.669 | 0.58 | 0.648 | 0.599 | 0.326 | 1 | 1.02 | 1.06 | 1.01 | 0.908 | 0.887 | 1.18 | 0.933 | 0.973 | 0.651 |
| NCI-H3122 | 0.167 | 0.177 | 0.175 | 0.168 | 0.152 | 0.759 | 0.604 | 0.682 | 0.647 | 0.407 | 1.03 | 0.982 | 1.02 | 0.906 | 0.81 | 0.622 | 0.69 | 0.572 | 0.58 | 0.53 |
| NCI-H1299 | – | – | – | – | – | 1.02 | 0.998 | 0.956 | 1.04 | 0.796 | 1.05 | 1.05 | 1.07 | 1.01 | 1.02 | 0.871 | 0.76 | 0.793 | 0.796 | 0.599 |
| LK-2 | 0.578 | – | 0.483 | 0.403 | 0.163 | 0.611 | 0.642 | 0.654 | 0.476 | 0.173 | 0.751 | 0.72 | 0.697 | 0.374 | 0.507 | 0.531 | 0.571 | 0.643 | 0.524 | 0.578 |
| HCC-15 | 0.689 | 0.67 | 0.717 | 0.591 | 0.402 | 0.799 | 0.745 | 0.729 | 0.683 | 0.397 | 0.627 | 0.7 | 0.74 | 0.598 | 0.454 | 0.721 | 0.673 | 0.822 | 0.716 | 0.63 |
| IA-LM | – | – | – | – | – | 0.898 | 0.776 | 0.733 | 0.485 | 0.212 | 0.894 | 0.727 | 0.736 | 0.628 | 0.718 | 0.265 | 0.412 | 0.432 | 0.335 | 0.327 |
| NCI-H1755 | 0.483 | 0.444 | 0.421 | 0.445 | 0.336 | 0.874 | 0.849 | 0.883 | 0.761 | 0.486 | 1.05 | 0.979 | 1.04 | 0.93 | 0.705 | 0.451 | 0.309 | 0.427 | 0.456 | 0.363 |
| EMC-BAC-2 | 0.488 | 0.499 | 0.487 | 0.398 | 0.348 | 0.487 | 0.489 | 0.468 | 0.402 | 0.29 | 1.11 | 1.08 | 1.17 | 0.956 | 0.879 | 0.512 | 0.516 | 0.62 | 0.528 | 0.479 |
